In patent US9896479B2, “Functionalized naphthalene fluorophores” (Kay M. Brummond, priority 2012, dated 2018):
Where two headings read alike, the source gives them in different places.

What was measured:
[1] = Absorption spectra (absorption maxima) of dyes in organic solvents; type: physicochemical
Text: (§1) All commercially available compounds were purchased from Aldrich Chemical Co., GFS Chemicals, Strem Chemicals, Acros Organics, Alfa Aesar, and Advanced Chemtech and used as received, except for p-toluenesulfonyl hydrazide, which was recrystallized from methanol. Amines were purchased from Aldrich Chemical Co. as purified by redistillation and used as received. Tetrahydrofuran (THF), diethyl ether (Et2O), and dichloromethane (CH2Cl2) were purified by passing through alumina using the Sol-Tek ST-002 solvent purification system. Acetonitrile (MeCN) and toluene were freshly distilled from CaH2 prior to use. Benzene was freshly distilled from sodium/benzophenone prior to use Anhydrous N,N-dimethylformamide (DMF), 1,2-dichloroethane (DCE), and 1,4-dioxane were purchased and used as received from Aldrich Chemical Co. Purification of the compounds by flash column chromatography was performed using silica gel (32-63 μm particle size, 60 Å pore size) purchased from Silicycle, or by using a Biotage Horizon flash purification system with either Biotage SNAP KP-SIL silica cartridges, or Teledyne ISCO RediSep Rf normal phase disposable flash columns (40-60 micron). TLC analyses were performed on EMD Chemicals Silica Gel 60 F254 glass plates (250 μm thickness). ^1H NMR and ^13C NMR spectra were recorded on Bruker Avance 300 MHz, 500 MHz, or 600 MHz spectrometers. Spectra were referenced to residual chloroform (7.27 ppm, ^1H, 77.0 ppm, ^13C) or 1,2-dichlorobenzene (6.93 ppm, ^1H, 127.19 ppm, ^13C). Chemical shifts are reported in ppm, multiplicities are indicated by s (singlet), d (doublet), t (triplet), q (quartet), p (pentet), and m (multiplet). Coupling constants, J, are reported in hertz (Hz). All NMR spectra were obtained at room temperature unless otherwise specified. IR spectra were obtained using a Nicolet Avatar E.S.P. 360 FT-IR. EI mass spectroscopy was performed on a Waters Micromass GCT high resolution mass spectrometer. ES mass spectroscopy was performed on a Waters Q-TOF Ultima API, Micromass UK Limited high resolution mass spectrometer. GC mass spectrometry was performed on a Shimadzu GCMS-17A/QP5050A spectrometer. All microwave-mediated reactions were carried out using a Biotage Initiator™ Exp microwave synthesizer. The microwave parameters were set to variable power, constant temperature, with the fixed hold time set to on. The microwave reactions were carried out in 0.2-0.5 mL, 0.5-2 mL, 2-5 mL, or 10-20 mL Biotage microwave vials. […] Absorption and fluorescence spectra were recorded on Lambda 9 spectrophotometer (Perkin Elmer) and FluoroMax-3 spectrofluorometer (Jobin Yvon, Horiba), respectively. Fluorescence quantum yields were determined by taking Prodan in DMSO (quantum yield, QY=91%) as a reference. The quantum yield values were corrected for the solvent refractive index. For spectroscopic measurements, 10^−5 M solutions of dyes in 10 mm quartz-cuvettes were used (excitation wavelength was 334 nm; slits open to 2 nm).

[2] = Fluorescence quantum yield vs Prodan in DMSO as reference; type: physicochemical; settings: for QY (fluorescence quantum yield vs Prodan in DMSO (91%)): excitation 334 nm, 10^-5 M
Text: as §1

[3] = cited from earlier work
[4] = Prodan in DMSO taken as reference; cited from earlier work

λabs (maximum absorption) ([1]; 1,4-Dioxane): 346 nm | λabs (maximum absorption) ([1]; Acetonitrile): 350 nm | λabs (maximum absorption) ([1]; CH2Cl2): 355 nm | λabs (maximum absorption) ([1]; DMSO): 357 nm | λabs (maximum absorption) ([1]; EtOH): 362 nm | λabs (maximum absorption) ([1]; THF): 348 nm | λabs (maximum absorption) ([1]; Toluene): 346 nm | λabs (maximum absorption) ([1]; n-Hexane): 340 nm | QY (fluorescence quantum yield vs Prodan in DMSO (91%)) ([2]; 1,4-Dioxane): 75% | QY (fluorescence quantum yield vs Prodan in DMSO (91%)) ([2]; Acetonitrile): 80% | QY (fluorescence quantum yield vs Prodan in DMSO (91%)) ([2]; CH2Cl2): 98% | QY (fluorescence quantum yield vs Prodan in DMSO (91%)) ([2]; DMSO): 91% | QY (fluorescence quantum yield vs Prodan in DMSO (91%)) ([2]; EtOH): 71% | QY (fluorescence quantum yield vs Prodan in DMSO (91%)) ([2]; THF): 78% | QY (fluorescence quantum yield vs Prodan in DMSO (91%)) ([2]; Toluene): 56% | QY (fluorescence quantum yield) ([2]; n-Hexane): 2.0%
Structure (SMILES): CCC(=O)c1ccc2cc(N(C)C)ccc2c1 [Prodan, reference compound]
Bathochromic shift ([3]; cyclohexane to water (background)): 124 nm | fluorescent emission ([3]; in cyclohexane (background)): 410 nm | fluorescent emission ([3]; in water (background)): 534 nm | quantum yield, QY (reference value) [4]: 91%
